This note sets out measurements from patent publication US12209102B2, “Heterocyclic compounds and uses thereof” (Kumquat Biosciences Inc., priority 2022, dated 2025).

The target in one assay is T1, K-Ras G12D (Homo sapiens, UniProt P01116, G12D).
T1 construct: made in house; host or cells: E. coli BL21 (DE3)
Put plainly: HTRF resonance energy transfer assay, K-Ras G12D / SOS1 interaction. The assay is classed as biochemical. As to conditions: HTRF assay of Example 5; read-out: IC50 against K-Ras G12D. The method, boiled down: (§1)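 Compounds, tested in duplicate at 10 μM down to 0.01 μM, were read after about 10 min or more by HTRF as the 665/620 nm emission ratio (337 nm excitation) to derive IC50. This ratio reports FRET between an anti-GST-Eu donor on GST-K-Ras (wild-type or mutant) and an anti-6His-XL665 acceptor on His-hSOS1. Buffer: ~5 mM HEPES pH 7.4, 150 mM NaCl, 1 mM DTT, 0.05% BSA, 0.0025% Igepal.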
Background: TR-FRET usually uses a lanthanide donor and a delayed reading to cut background.

The target in another assay is T2, K-Ras G12S (Homo sapiens, UniProt P01116, G12S).
T2 construct: made in house; host or cells: E. coli BL21 (DE3)
The assay can be described thus: HTRF resonance energy transfer assay, K-Ras G12S / SOS1 interaction. As to conditions: HTRF assay of Example 5; read-out: IC50 against K-Ras G12S. It counts as biochemical. The method, boiled down: as §1

In a further assay the target is T3, K-Ras G12V (Homo sapiens, UniProt P01116, G12V).
T3 construct: made in house; host or cells: E. coli BL21 (DE3)
Put plainly: HTRF resonance energy transfer assay, K-Ras G12V / SOS1 interaction. It counts as biochemical. As to conditions: HTRF assay of Example 5; read-out: IC50 against K-Ras G12V. In outline: as §1

In another assay the target is T4, K-Ras WT (Homo sapiens, UniProt P01116).
T4 construct: made in house; host or cells: E. coli BL21 (DE3)
Put plainly: HTRF resonance energy transfer assay, K-Ras WT / SOS1 interaction. It counts as biochemical. Particulars: HTRF assay of Example 5; read-out: IC50 against K-Ras WT. The method, boiled down: as §1

In another assay the test system is GP2D cells. Put plainly: Ras cellular assay, growth of cells with K-Ras G12D mutation (CellTiter-Glo). The assay is classed as cell-based. Particulars: cell growth, Example 9, G12D mutation, read-out: IC50 against GP2D cells. Background: ATP-based viability assays read luminescence as a measure of living cells.
The test system of the next assay is A549 cells. Put plainly: Ras cellular assay, growth of cells with K-Ras G12S mutation (CellTiter-Glo). The assay is classed as cell-based. As to conditions: Homo sapiens, cell growth, Example 9, G12S mutation, read-out: IC50 against A549 cells. In outline: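 Growth inhibition IC50 values come from four-parameter fits of CellTiter-Glo luminescence, read about 6 days after compound addition. G12S-mutant A549 cells (e.g. 800/well, RPMI-1640 + 10% heat-inactivated FBS) were plated in tissue-culture-treated or ultra-low-attachment 384-well format. Dosing began the following day with serial dilutions, e.g. 10 points, 3-fold.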

A further assay has as its system SW620 cells. The assay can be described thus: Ras cellular assay, growth of cells with K-Ras G12V mutation (CellTiter-Glo). The assay is classed as cell-based. Particulars: Homo sapiens, SW-620; cell growth, Example 9, G12V mutation; read-out: IC50 against SW620 cells. The method, boiled down: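 IC50 values came from a four-parameter fit of CellTiter-Glo viability, read roughly 6 days after dosing with e.g. a 10-point threefold dilution series. G12V-mutant SW620 cells (e.g. 800 per well) had been plated the previous day in RPMI-1640/10% heat-inactivated FBS, on tissue culture-treated or ultra-low attachment plates.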

Where only a bound is given, the exact number is not on record here.

T4 sequence (P01116 1-188 isoform P01116-2): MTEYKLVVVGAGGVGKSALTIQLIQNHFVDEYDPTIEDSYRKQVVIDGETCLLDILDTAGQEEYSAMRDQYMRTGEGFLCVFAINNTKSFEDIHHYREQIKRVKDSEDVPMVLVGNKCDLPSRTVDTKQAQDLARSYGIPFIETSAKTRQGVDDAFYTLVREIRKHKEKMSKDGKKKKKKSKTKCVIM
T1 sequence (P01116 1-188 isoform P01116-2 G12D): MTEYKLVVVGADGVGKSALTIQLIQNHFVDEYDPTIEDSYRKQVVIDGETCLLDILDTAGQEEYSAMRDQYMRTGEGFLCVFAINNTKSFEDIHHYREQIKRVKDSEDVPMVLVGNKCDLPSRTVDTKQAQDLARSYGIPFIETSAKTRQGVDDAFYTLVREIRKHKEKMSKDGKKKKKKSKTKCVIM
T2 sequence (P01116 1-188 isoform P01116-2 G12S): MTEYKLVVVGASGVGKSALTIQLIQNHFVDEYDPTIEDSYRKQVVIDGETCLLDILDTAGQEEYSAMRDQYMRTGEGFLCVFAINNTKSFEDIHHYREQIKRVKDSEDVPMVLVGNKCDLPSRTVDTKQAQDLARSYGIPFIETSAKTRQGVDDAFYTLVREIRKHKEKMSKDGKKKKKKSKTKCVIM
T3 sequence (P01116 1-188 isoform P01116-2 G12V): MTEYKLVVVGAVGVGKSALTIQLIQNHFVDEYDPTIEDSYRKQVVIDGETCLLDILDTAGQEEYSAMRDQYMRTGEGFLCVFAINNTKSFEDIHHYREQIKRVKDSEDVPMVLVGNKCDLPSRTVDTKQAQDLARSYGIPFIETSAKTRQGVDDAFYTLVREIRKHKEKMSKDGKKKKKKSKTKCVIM

A word on the IC50: it is the concentration at which inhibition is half-maximal. Turning to `N#Cc1c(N)sc2c(F)ccc(-c3c(Cl)c4c5c(nc(OC[C@@]67CCCN6C[C@H](F)C7)nc5c3F)N(C3(C(F)F)CC3)CCO4)c12` [Compound 1060, 2-amino-4-(8-chloro-4-(1-(difluoromethyl)cyclopropyl)-10-fluoro-2-(((2R,7aS)-2-fluorotetrahydro-1H-pyrrolizin-7a(5H)-yl)methoxy)-5,6-dihydro-4H-[1,4]oxazepino[5,6,7-de]quinazolin-9-yl)-7-fluorobenzo[b]thiophene-3-carbonitrile], the IC50 on K-Ras G12D was below 100 nM; on K-Ras G12S, below 100 nM; at K-Ras G12V, below 100 nM; on K-Ras WT it was below 100 nM; in the assay with GP2D cells, below 500 nM; in the assay on A549 cells it was below 5000 nM. Moreover, in the assay on SW620 cells, the IC50 was below 5000 nM.
As for `COCCN1CCOc2c(Cl)c(-c3ccc(F)c4sc(N)c(C#N)c34)c(F)c3nc(OC[C@@]45CCCN4C[C@H](F)C5)nc1c23` [Compound 1061, 2-amino-4-(8-chloro-10-fluoro-2-(((2R,7aS)-2-fluorotetrahydro-1H-pyrrolizin-7a(5H)-yl)methoxy)-4-(2-methoxyethyl)-5,6-dihydro-4H-[1,4]oxazepino[5,6,7-de]quinazolin-9-yl)-7-fluorobenzo[b]thiophene-3-carbonitrile], the IC50 on K-Ras G12D is below 100 nM; at K-Ras G12S, below 100 nM; at K-Ras G12V, below 100 nM; at K-Ras WT, below 100 nM; in the assay on GP2D cells, below 500 nM; in the assay with A549 cells it was below 5000 nM. Besides, the IC50 with SW620 cells is below 5000 nM.
Take `CN(C)C1(CN2CCOc3c(Cl)c(-c4ccc(F)c5sc(N)c(C#N)c45)c(F)c4nc(OC[C@@]56CCCN5C[C@H](F)C6)nc2c34)CCCC1` [Compound 1062, 2-amino-4-(8-chloro-4-((1-(dimethylamino)cyclopentyl)methyl)-10-fluoro-2-(((2R,7aS)-2-fluorotetrahydro-1H-pyrrolizin-7a(5H)-yl)methoxy)-5,6-dihydro-4H-[1,4]oxazepino[5,6,7-de]quinazolin-9-yl)-7-fluorobenzo[b]thiophene-3-carbonitrile]: the IC50 on K-Ras G12D is below 100 nM; on K-Ras G12S it was below 100 nM; at K-Ras G12V, below 100 nM; on K-Ras WT it was below 100 nM; in the assay on GP2D cells, below 500 nM; in the assay with A549 cells, below 5000 nM. For the same molecule, in the assay on SW620 cells, the concentration for half-maximal inhibition (IC50) was below 5000 nM.
As to `N#Cc1c(N)sc2c(F)ccc(-c3c(Cl)c4c5c(nc(OC[C@@]67CCCN6C[C@H](F)C7)nc5c3F)N(C3CCN(C(=O)C5CCO5)C3)CCO4)c12` (stereo partly drawn) [Compound 1064, 2-amino-4-(8-chloro-10-fluoro-2-(((2R,7aS)-2-fluorotetrahydro-1H-pyrrolizin-7a(5H)-yl)methoxy)-4-(1-(oxetane-2-carbonyl)pyrrolidin-3-yl)-5,6-dihydro-4H-[1,4]oxazepino[5,6,7-de]quinazolin-9-yl)-7-fluorobenzo[b]thiophene-3-carbonitrile], the IC50 on K-Ras G12D is below 100 nM; at K-Ras G12S, below 100 nM; at K-Ras G12V it was below 100 nM; at K-Ras WT, below 100 nM; in the assay with GP2D cells, below 500 nM; in the assay on A549 cells, below 5000 nM. The 50% inhibitory concentration (IC50) with SW620 cells was below 5000 nM.
With `C[C@@H](O)[C@H]1COc2c(Cl)c(-c3ccc(F)c4sc(N)c(C#N)c34)c(F)c3nc(OC[C@@]45CCCN4C[C@H](F)C5)nc(c23)N1CC(F)F` [Compound 1080, 2-amino-4-((5R)-8-chloro-4-(2,2-difluoroethyl)-10-fluoro-2-(((2R,7aS)-2-fluorotetrahydro-1H-pyrrolizin-7a(5H)-yl)methoxy)-5-((R)-1-hydroxyethyl)-5,6-dihydro-4H-[1,4]oxazepino[5,6,7-de]quinazolin-9-yl)-7-fluorobenzo[b]thiophene-3-carbonitrile], the IC50 on K-Ras G12D was below 100 nM; on K-Ras G12S, below 100 nM; at K-Ras G12V, below 100 nM; at K-Ras WT, below 100 nM; in the assay with GP2D cells it was below 500 nM; in the assay on A549 cells it was below 5000 nM. Besides, the half-inhibitory concentration (IC50) in the assay on SW620 cells was below 5000 nM.
For `N#Cc1c(N)sc2c(F)ccc(-c3c(Cl)c4c5c(nc(OC[C@@]67CCCN6C[C@H](F)C7)nc5c3F)N([C@H]3CCN(C=O)C3)CCO4)c12` [Compound 1095, 2-amino-4-(8-chloro-10-fluoro-2-(((2R,7aS)-2-fluorotetrahydro-1H-pyrrolizin-7a(5H)-yl)methoxy)-4-((S)-1-formylpyrrolidin-3-yl)-5,6-dihydro-4H-[1,4]oxazepino[5,6,7-de]quinazolin-9-yl)-7-fluorobenzo[b]thiophene-3-carbonitrile], the 50% inhibitory concentration (IC50) was below 100 nM at K-Ras G12D; below 100 nM on K-Ras G12S; below 100 nM at K-Ras G12V; below 100 nM at K-Ras WT; below 500 nM in the assay with GP2D cells; below 5000 nM in the assay on A549 cells. In the assay on SW620 cells, the half-maximal inhibitory concentration (IC50) was below 5000 nM.
For `CC(F)(F)CN1CCOc2c(Cl)c(-c3ccc(F)c4sc(N)c(C#N)c34)c(F)c3nc(OC[C@@]45CCCN4C[C@H](F)C5)nc1c23` [Compound 1108, 2-amino-4-(8-chloro-4-(2,2-difluoropropyl)-10-fluoro-2-(((2R,7aS)-2-fluorotetrahydro-1H-pyrrolizin-7a(5H)-yl)methoxy)-5,6-dihydro-4H-[1,4]oxazepino[5,6,7-de]quinazolin-9-yl)-7-fluorobenzo[b]thiophene-3-carbonitrile], the IC50 at K-Ras G12D was below 100 nM; at K-Ras G12S it was below 100 nM; on K-Ras G12V it was below 100 nM; at K-Ras WT, below 100 nM; in the assay on GP2D cells, below 500 nM; in the assay on A549 cells, below 5000 nM. In the assay on SW620 cells, the concentration for half-maximal inhibition (IC50) was below 5000 nM.
Regarding `CO[C@H](C)C(=O)N1CCC(N2CCOc3c(Cl)c(-c4ccc(F)c5sc(N)c(C#N)c45)c(F)c4nc(OC[C@@]56CCCN5C[C@H](F)C6)nc2c34)C1` (stereo partly drawn) [Compound 1110, 2-amino-4-(8-chloro-10-fluoro-2-(((2R,7aS)-2-fluorotetrahydro-1H-pyrrolizin-7a(5H)-yl)methoxy)-4-(1-((R)-2-methoxypropanoyl)pyrrolidin-3-yl)-5,6-dihydro-4H-[1,4]oxazepino[5,6,7-de]quinazolin-9-yl)-7-fluorobenzo[b]thiophene-3-carbonitrile], the IC50 on K-Ras G12D was below 100 nM; at K-Ras G12S, below 100 nM; on K-Ras G12V it was below 100 nM; on K-Ras WT it was below 100 nM; with GP2D cells, below 500 nM; in the assay with A549 cells, below 5000 nM. Moreover, in the assay with SW620 cells, the half-inhibitory concentration (IC50) is below 5000 nM.
In the case of `CN1c2nc(OC[C@@]34CCCN3C[C@H](F)C4)nc3c(F)c(-c4ccc(F)c5sc(N)c(C#N)c45)c(Cl)c(c23)OC[C@@H]1CN` [Compound 1113, 2-amino-4-((5S)-5-(aminomethyl)-8-chloro-10-fluoro-2-(((2R,7aS)-2-fluorotetrahydro-1H-pyrrolizin-7a(5H)-yl)methoxy)-4-methyl-5,6-dihydro-4H-[1,4]oxazepino[5,6,7-de]quinazolin-9-yl)-7-fluorobenzo[b]thiophene-3-carbonitrile], the IC50 was below 100 nM at K-Ras G12D; below 100 nM at K-Ras G12S; below 100 nM on K-Ras G12V; below 100 nM on K-Ras WT; below 500 nM with GP2D cells; below 5000 nM with A549 cells. Further, in the assay on SW620 cells, the IC50 is below 5000 nM.
Take `N#Cc1c(N)sc2c(F)ccc(-c3c(Cl)c4c5c(nc(OC[C@@]67CCCN6C[C@H](F)C7)nc5c3F)N(C3CCC5(C3)CN(C(=O)CC3COC3)C5)CCO4)c12` (stereo partly drawn) [Compound 1115, 2-amino-4-(8-chloro-10-fluoro-2-(((2R,7aS)-2-fluorotetrahydro-1H-pyrrolizin-7a(5H)-yl)methoxy)-4-(2-(2-(oxetan-3-yl)acetyl)-2-azaspiro[3.4]octan-6-yl)-5,6-dihydro-4H-[1,4]oxazepino[5,6,7-de]quinazolin-9-yl)-7-fluorobenzo[b]thiophene-3-carbonitrile]: the IC50 at K-Ras G12D is below 100 nM; on K-Ras G12S, below 100 nM; on K-Ras G12V, below 100 nM; at K-Ras WT, below 100 nM; in the assay with GP2D cells it was below 500 nM; with A549 cells, below 5000 nM. Besides, the half-inhibitory concentration (IC50) in the assay with SW620 cells is below 5000 nM.
